# Source: ChEMBL document CHEMBL1201862, “PubChem BioAssay data set” (2004)
#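 Values below derive from 48-hour exposures of cells grown in 96-well plates, with endpoints linearly interpolated between the two concentrations bracketing the appropriate inhibition level. Abbreviation: GI50, concentration required for 50% inhibition of growth.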 The source made the active and inactive calls. No stated cut-off is given here; in the data, active = GI50 up to about 1.1 µM and inactive = higher.
# Experiments:
# Experiment in all cases: NCI tumour cell line growth inhibition, 48 h
# SF-268 = test system: SF-268
# EKVX = test system: EKVX
# CCRF-CEM = test system: CCRF-CEM
# HCT-15 = test system: HCT-15
# COLO 205 = test system: COLO 205
# HT-29 = test system: HT-29
# BT-549 = test system: BT-549
# UACC-62 = test system: UACC-62
# CAKI-1 = test system: CAKI-1
# SF-295 = test system: SF-295
# TK-10 = test system: TK-10
# HOP-62 = test system: HOP-62
# DU-145 = test system: DU-145
# SNB-19 = test system: SNB-19
# OVCAR-8 = test system: OVCAR-8
# SK-MEL-5 = test system: SK-MEL-5
# SNB-75 = test system: SNB-75
# RXF 393 = test system: RXF 393
# IGROV-1 = test system: IGROV-1
# NCI/ADR-RES = test system: NCI/ADR-RES
Structure (SMILES),GI50 (SF-268),GI50 (EKVX),GI50 (CCRF-CEM),GI50 (HCT-15),GI50 (COLO 205),GI50 (HT-29),GI50 (BT-549),GI50 (UACC-62),GI50 (CAKI-1),GI50 (SF-295),GI50 (TK-10),GI50 (HOP-62),GI50 (DU-145),GI50 (SNB-19),GI50 (OVCAR-8),GI50 (SK-MEL-5),GI50 (SNB-75),GI50 (RXF 393),GI50 (IGROV-1),GI50 (NCI/ADR-RES)
CC(C)(C)C(=O)c1c(O)c2ccccc2c2ccccc2c1=O,> 100 µM (inactive),> 100 µM (inactive),> 100 µM (inactive),64.4 µM,> 100 µM (inactive),49.7 µM (inactive),32.4 µM (inactive),76.4 µM (inactive),> 100 µM (inactive),48.6 µM (inactive),97.5 µM (inactive),82.2 µM (inactive),> 100 µM (inactive),> 100 µM (inactive),82.6 µM (inactive),> 100 µM (inactive),30.9 µM (inactive),–,–,–
COC(=O)c1c2c(cc3c1CC1(Cc4cc5c(c(C=O)c4C1)CCC5)C3)CCC2 (stereo unspecified),50.7 µM (inactive),62.1 µM (inactive),13.4 µM (inactive),40.3 µM,–,21.4 µM (inactive),–,–,> 100 µM (inactive),41.4 µM (inactive),98.4 µM (inactive),51.9 µM (inactive),38.1 µM (inactive),44.7 µM (inactive),42.8 µM (inactive),16 µM (inactive),> 100 µM (inactive),30.7 µM (inactive),28.4 µM (inactive),40.5 µM (inactive)
C/C(CCn1[nH]c(=O)ccc1=O)=N\O,> 100 µM (inactive),> 100 µM (inactive),> 100 µM (inactive),> 100 µM,–,> 100 µM (inactive),–,> 100 µM (inactive),> 100 µM (inactive),> 100 µM (inactive),> 100 µM (inactive),> 100 µM (inactive),–,> 100 µM (inactive),> 100 µM (inactive),> 100 µM (inactive),> 100 µM (inactive),> 100 µM (inactive),> 100 µM (inactive),–
CCSc1nnc(CSc2nc(-c3ccccc3)c(-c3ccccc3)[nH]2)n1-c1ccccc1,23.3 µM (inactive),24.4 µM (inactive),17 µM (inactive),18.5 µM,16.1 µM (inactive),19.4 µM (inactive),–,15.3 µM (inactive),23.7 µM (inactive),23.1 µM (inactive),22.6 µM (inactive),20.2 µM (inactive),–,16.1 µM (inactive),21.6 µM (inactive),17.1 µM (inactive),18.4 µM (inactive),25.8 µM (inactive),20.9 µM (inactive),–
COc1cccc2cc(C)c(C(=O)c3ccccc3)nc12,> 100 µM (inactive),> 100 µM (inactive),> 100 µM (inactive),> 100 µM,> 100 µM (inactive),–,–,> 100 µM (inactive),> 100 µM (inactive),> 100 µM (inactive),> 100 µM (inactive),> 100 µM (inactive),–,> 100 µM (inactive),> 100 µM (inactive),> 100 µM (inactive),91.2 µM (inactive),> 100 µM (inactive),> 100 µM (inactive),–
COc1ccc(NC(=O)CC/C(CC(=O)c2ccco2)=N/NC(=O)C(N)=O)cc1,68.9 µM (inactive),> 100 µM (inactive),63.5 µM (inactive),> 100 µM,> 100 µM (inactive),> 100 µM (inactive),–,> 100 µM (inactive),> 100 µM (inactive),> 100 µM (inactive),> 100 µM (inactive),> 100 µM (inactive),–,56.8 µM (inactive),> 100 µM (inactive),27.4 µM (inactive),97.5 µM (inactive),61.9 µM (inactive),> 100 µM (inactive),–
CC(=O)/C(=C\c1ccc(Cl)c(Cl)c1)C(=O)C(C)CN(C)C (stereo unspecified),3.62 µM (inactive),14.2 µM (inactive),< 0.01 µM (active),2.33 µM,11.4 µM (inactive),5.12 µM (inactive),2.26 µM (inactive),–,4.48 µM (inactive),4.32 µM (inactive),1.94 µM (inactive),19.1 µM (inactive),4.43 µM (inactive),1.8 µM (inactive),1.91 µM (inactive),11.9 µM (inactive),–,–,2.07 µM (inactive),13.1 µM (inactive)
COc1cc2c(cc1OC)-c1cc(OC)c(OC)cc1[C@H]1CN3CCC[C@@]3(O)C=C21,< 0.0001 µM (active),< 0.0001 µM (active),< 0.0001 µM (active),< 0.0001 µM,< 0.0001 µM (active),< 0.0001 µM (active),–,< 0.0001 µM (active),< 0.0001 µM (active),< 0.0001 µM (active),0.000145 µM (active),< 0.0001 µM (active),–,< 0.0001 µM (active),< 0.0001 µM (active),< 0.0001 µM (active),< 0.0001 µM (active),0.01 µM (active),< 0.0001 µM (active),–
Cc1nc(Nc2ccc(Cl)cc2Cl)sc1C(=O)Nc1ccccc1,77.6 µM (inactive),84.7 µM (inactive),34.1 µM (inactive),74.1 µM,26.2 µM (inactive),35.3 µM (inactive),–,82.6 µM (inactive),49.8 µM (inactive),29.9 µM (inactive),57.4 µM (inactive),81.1 µM (inactive),> 100 µM (inactive),> 100 µM (inactive),> 100 µM (inactive),37.9 µM (inactive),39 µM (inactive),33.3 µM (inactive),63.4 µM (inactive),96.6 µM (inactive)
N#CC1CCCCOCCOCCOCCOCCOCCCCCC1=O (stereo unspecified),> 100 µM (inactive),> 100 µM (inactive),> 100 µM (inactive),> 100 µM,> 100 µM (inactive),> 100 µM (inactive),–,> 100 µM (inactive),> 100 µM (inactive),> 100 µM (inactive),> 100 µM (inactive),> 100 µM (inactive),–,> 100 µM (inactive),> 100 µM (inactive),> 100 µM (inactive),> 100 µM (inactive),> 100 µM (inactive),> 100 µM (inactive),–
Cc1ccc(/C(=C\C(=O)C(=O)NC23CC4CC(CC(C4)C2)C3)Sc2ccccc2)cc1,> 10 µM (inactive),> 10 µM (inactive),4.75 µM (inactive),> 10 µM,3.5 µM (inactive),> 10 µM (inactive),–,–,> 10 µM (inactive),> 10 µM (inactive),> 10 µM (inactive),> 10 µM (inactive),> 10 µM (inactive),–,> 10 µM (inactive),> 10 µM (inactive),> 10 µM (inactive),> 10 µM (inactive),> 10 µM (inactive),> 10 µM (inactive)
NC1=NS(=O)(=O)Nc2nc(-c3ccc([N+](=O)[O-])cc3)[nH]c21,> 100 µM (inactive),–,> 100 µM (inactive),> 100 µM,> 100 µM (inactive),> 100 µM (inactive),–,> 100 µM (inactive),> 100 µM (inactive),> 100 µM (inactive),> 100 µM (inactive),> 100 µM (inactive),–,> 100 µM (inactive),> 100 µM (inactive),> 100 µM (inactive),> 100 µM (inactive),> 100 µM (inactive),> 100 µM (inactive),–
COC(=O)C1C2C=CC(C2)C1(C(=O)OC)[S+]([O-])CC12CCC(CC1O)C2(C)C (stereo unspecified),> 100 µM (inactive),> 100 µM (inactive),> 100 µM (inactive),19.2 µM,> 100 µM (inactive),> 100 µM (inactive),–,> 100 µM (inactive),> 100 µM (inactive),> 100 µM (inactive),> 100 µM (inactive),> 100 µM (inactive),–,> 100 µM (inactive),> 100 µM (inactive),> 100 µM (inactive),> 100 µM (inactive),77.8 µM (inactive),> 100 µM (inactive),–
COc1cccc2c(NNc3ccc(Cl)cc3)c3ccc([N+](=O)[O-])cc3nc12,12.7 µM (inactive),12.5 µM (inactive),2.74 µM (inactive),8.59 µM,21.6 µM (inactive),14.2 µM (inactive),14 µM (inactive),8.38 µM (inactive),2.28 µM (inactive),16.2 µM (inactive),10.3 µM (inactive),10.9 µM (inactive),9.84 µM (inactive),14.8 µM (inactive),–,12.4 µM (inactive),–,14.7 µM (inactive),–,–
CC1=CC(=O)c2cccc(NC3=NCCO3)c21,> 100 µM (inactive),> 100 µM (inactive),42 µM (inactive),49.4 µM,41.1 µM (inactive),34 µM (inactive),–,> 100 µM (inactive),> 100 µM (inactive),> 100 µM (inactive),> 100 µM (inactive),> 100 µM (inactive),74.1 µM (inactive),> 100 µM (inactive),–,23.2 µM (inactive),52.6 µM (inactive),48.9 µM (inactive),36.1 µM (inactive),29.5 µM (inactive)
O=C(NO)C12C3C4C1C1C2C3C41C(=O)NO (stereo unspecified),> 100 µM (inactive),> 100 µM (inactive),> 100 µM (inactive),> 100 µM,> 100 µM (inactive),> 100 µM (inactive),–,> 100 µM (inactive),> 100 µM (inactive),> 100 µM (inactive),> 100 µM (inactive),> 100 µM (inactive),–,> 100 µM (inactive),> 100 µM (inactive),> 100 µM (inactive),> 100 µM (inactive),> 100 µM (inactive),–,–
C[C@@H](NC1CCC[C@@H]1O)c1ccccc1 (stereo partly specified),–,> 100 µM (inactive),> 100 µM (inactive),> 100 µM,> 100 µM (inactive),> 100 µM (inactive),–,> 100 µM (inactive),> 100 µM (inactive),> 100 µM (inactive),> 100 µM (inactive),> 100 µM (inactive),–,> 100 µM (inactive),> 100 µM (inactive),> 100 µM (inactive),> 100 µM (inactive),> 100 µM (inactive),> 100 µM (inactive),–
